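Dose response: 5 concentrations. Exposure: 48 h. Format: 96-well plates. Endpoint: linear interpolation; highest concentration if not reached. Abbreviation: GI50, concentration required for 50% inhibition of growth. TGI: total growth inhibition.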
Columns and labels:
Assay in all cases: NCI-60 cell line screen, 48 h
EKVX NSCLC = system: EKVX NSCLC
LOX IMVI melanoma = system: LOX IMVI melanoma
IGROV1 ovarian = system: IGROV1 ovarian
SK-MEL-28 melanoma = system: SK-MEL-28 melanoma
HL-60(TB) leukemia = system: HL-60(TB) leukemia
RPMI-8226 leukemia = system: RPMI-8226 leukemia
NCI-H23 lung = system: NCI-H23 lung
HCC-2998 colon = system: HCC-2998 colon
UO-31 renal = system: UO-31 renal
OVCAR-8 ovarian = system: OVCAR-8 ovarian

Compound	GI50 (EKVX NSCLC)	TGI (EKVX NSCLC)	GI50 (LOX IMVI melanoma)	TGI (LOX IMVI melanoma)	GI50 (IGROV1 ovarian)	TGI (IGROV1 ovarian)	GI50 (SK-MEL-28 melanoma)	TGI (SK-MEL-28 melanoma)	GI50 (HL-60(TB) leukemia)	TGI (HL-60(TB) leukemia)	GI50 (RPMI-8226 leukemia)	TGI (RPMI-8226 leukemia)	GI50 (NCI-H23 lung)	TGI (NCI-H23 lung)	GI50 (HCC-2998 colon)	TGI (HCC-2998 colon)	GI50 (UO-31 renal)	TGI (UO-31 renal)	GI50 (OVCAR-8 ovarian)	TGI (OVCAR-8 ovarian)
COc1ccc(CCN2CCCn3c2nc2ccccc2c3=O)cc1	970 nM	> 100000 nM	76.2 nM	> 100000 nM	109 nM	> 100000 nM	2420 nM	> 100000 nM	38 nM	982 nM	353 nM	> 100000 nM	232 nM	> 83900 nM	362 nM	> 100000 nM	876 nM	> 100000 nM	423 nM	> 100000 nM
O=C1/C(=C/c2ccc(F)cc2)COc2ccc(O)c(O)c21	3290 nM	18400 nM	1030 nM	2390 nM	1100 nM	3940 nM	2270 nM	5910 nM	604 nM	3890 nM	260 nM	714 nM	2650 nM	13700 nM	1800 nM	3570 nM	1050 nM	2270 nM	2160 nM	> 100000 nM
Cc1cccc(CNc2c3ccccc3nc3ccccc23)c1	2310 nM	8970 nM	1490 nM	2900 nM	2170 nM	6790 nM	1890 nM	4070 nM	2260 nM	5280 nM	1870 nM	4940 nM	1630 nM	4220 nM	1550 nM	3400 nM	1190 nM	2620 nM	2480 nM	9820 nM
CC1(Cl)C(=O)NC(=O)N([C@H]2C[C@H](O)[C@@H](CO)O2)C1N=[N+]=[N-] (stereo not given in full)		> 100000 nM		> 100000 nM		> 100000 nM		> 100000 nM		> 100000 nM		> 100000 nM		> 100000 nM		> 100000 nM		> 100000 nM		> 100000 nM
